One experiment deals with TRPM7. As to the kind of experiment: Lung magnesium homeostasis (TRPM6/TRPM7 mRNA, total lung magnesium) after myriocin. It is filed as in vivo, mice. The source says:
It is proportional to the magnesium concentration.

For another experiment, the system named is Muc5ac. As to the kind of experiment: Mucus production (PAS stain, Muc5ac mRNA) after myriocin. Type of experiment: in vivo. The following applies: myriocin-treated mice. The source says:
Lung sections were stained with periodic acid-Schiff stain (PAS) and analyzed by light microscopy. Expression of MUC5ac (Mm01276735) was quantified by TaqMan RealTime RT-PCR as described above.

Another experiment has as its system isolated bronchial rings. As to the kind of experiment: MgSO4-induced relaxation of methacholine-stimulated bronchial rings from myriocin-treated mice. The following applies: rings from mice given intranasal myriocin (20 μg), methacholine then MgSO4 (15 mM); FIG. 5C.
For experiment [1], the system named is ORMDL1, ORMDL2 and ORMDL3 mRNA. Briefly: ORMDL1, 2 and 3 mRNA expression in lung tissue (RealTime RT-PCR). It is filed as in vivo, mice. The following applies: 20 μg myriocin; FIG. 2H. The protocol: RNA was extracted from lungs using TRIzol (Invitrogen). Following reverse transcription of 3 μg RNA, ORMDL1, 2 and 3 mRNAs were amplified using the following primers and probes (Roche Applied Science): RNA levels were quantified using the ΔΔCt method and normalized to expression of murine ribosomal 18s (4310893E, Applied Biosystems). To assess if ORMDL expression was altered with decreased activity of SPT, mRNA expression of ORMDL1, 2 and 3 in lung tissue was analyzed following myriocin treatment and in the Sptlc2^+/− mice. Expression of ORMDL1, 2 or 3 was not affected by myriocin (FIG. 2H) or by genetic SPT deficiency (FIG. 2I).

Procedure for isolated bronchial rings: The effect of Mg^2+ supplementation on methacholine-induced contraction of bronchial rings was analyzed by adding MgSO4 (15 mM) to the myograph bath solution following stimulation with methacholine (10 μM).

With `CCCCCCC(=O)CCCCCC/C=C/C[C@@H](O)[C@H](O)[C@@](N)(CO)C(=O)O` [myriocin], the “expression of TRPM6” value in the experiment with TRPM7 (data not shown) is recorded as “not altered”. Moreover, the “expression of TRPM7 in the lungs” value with TRPM7 (mice that had received myriocin, FIG. 5A) is on record as “increased”. The lung magnesium levels entry with TRPM7 (myriocin-treated (20 μg) mice, FIG. 5B) was “reduced”. Also, the “mucus-producing cells on PAS-stained lung sections” value with Muc5ac is “No differences”. In the experiment on Muc5ac (FIG. 4K), the “Expression of Muc5ac in the lungs” value is “unchanged”. Further, the “magnesium-induced relaxation of bronchial rings” value in the experiment on isolated bronchial rings is listed as “impaired”. Besides, the “Expression of ORMDL1, 2 or 3 in lung tissue” value in experiment [1] was “not affected”.

Source of the values: US10159678B2, “Methods to decrease susceptibility to asthmatic bronchoconstriction” (Cornell University, priority 2012, dated 2018).
